Results: the CheMixHub ionic liquid set

Test: xn = mol fraction of the nth substance listed

OCCCCCCO + C[N+](C)(C)Cc1ccccc1.[Cl-]
101.13 kPa, x2 = 0.5
Conditions	electrical conductivity [S/m]	viscosity [mPa·s]
298 K	0.084	–
308 K	–	73

CC[n+]1ccccc1.[Cl-] + CCCC[n+]1ccccc1.[Cl-]
101 kPa
Conditions	viscosity [mPa·s]
388.1 K, x1 = 0.804	23.2
393.1 K, x1 = 0.504	27.4
393.1 K, x1 = 0.804	19.8
398.1 K, x1 = 0.504	23.4
398.1 K, x1 = 0.702	18.5
398.1 K, x1 = 0.804	17
403.1 K, x1 = 0.804	14.67
408.1 K, x1 = 0.198	22.8
413.1 K, x1 = 0.198	19.7
413.1 K, x1 = 0.795	11.06
418.1 K, x1 = 0.504	13.42
423.1 K, x1 = 0.388	12.25
428.1 K, x1 = 0.702	8.33
428.1 K, x1 = 0.795	7.76
433.1 K, x1 = 0.597	8.38
438.1 K, x1 = 0.302	9.51
438.1 K, x1 = 0.702	6.8
443.1 K, x1 = 0.504	8.1
443.1 K, x1 = 0.804	6.06

CC[n+]1ccn(C)c1.F[B-](F)(F)F + CO
viscosity [mPa·s], 101 kPa
Conditions	x1 = 0.0999	x1 = 0.2	x1 = 0.3	x1 = 0.3996	x1 = 0.5005	x1 = 0.5973	x1 = 0.7011	x1 = 0.8013	x1 = 0.8995	x1 = 1
303.15 K	0.945	1.6	2.45	3.62	5.25	7.32	10.4	14.5	20	28
313.15 K	0.822	1.36	2.08	3.03	4.34	5.96	8.24	11.2	15.1	20.4
323.15 K	0.718	1.19	1.79	2.6	3.67	4.96	6.82	8.97	11.7	15.3
333.15 K	0.636	1.06	1.6	2.3	3.24	4.25	5.74	7.47	9.43	12.1

C[N+](C)(C)Cc1ccccc1.[Cl-] + O=C([O-])c1ccccc1O.[Na+] + O
viscosity [mPa·s], 100 kPa
Conditions	298.15 K	303.15 K	308.15 K	313.15 K	318.15 K
x1 = 9.698e-05, x2 = 0.001545	0.924	0.833	0.75	0.651	0.564
x1 = 9.701e-05, x2 = 0.00127	0.916	0.827	0.744	0.648	0.561
x1 = 9.703e-05, x2 = 0.0009982	0.91	0.821	0.739	0.642	0.557
x1 = 9.706e-05, x2 = 0.0007245	0.905	0.816	0.734	0.637	0.551
x1 = 9.709e-05, x2 = 0.0004525	0.9	0.811	0.729	0.633	0.547
x1 = 9.711e-05, x2 = 0.0001803	0.896	0.807	0.725	0.629	0.543
x1 = 0.0002915, x2 = 0.001548	0.926	0.836	0.753	0.648	0.56
x1 = 0.0002916, x2 = 0.001	0.915	0.824	0.742	0.639	0.552
x1 = 0.0002916, x2 = 0.001272	0.921	0.83	0.747	0.644	0.556
x1 = 0.0002917, x2 = 0.0007258	0.909	0.819	0.736	0.635	0.547
x1 = 0.0002918, x2 = 0.0004533	0.903	0.814	0.732	0.63	0.544
x1 = 0.0002919, x2 = 0.0001807	0.898	0.809	0.727	0.625	0.539
x1 = 0.0004867, x2 = 0.001551	0.932	0.843	0.759	0.664	0.577
x1 = 0.0004868, x2 = 0.001275	0.926	0.836	0.753	0.659	0.572
x1 = 0.0004869, x2 = 0.001002	0.919	0.831	0.748	0.654	0.568
x1 = 0.0004871, x2 = 0.0007272	0.914	0.825	0.743	0.648	0.563
x1 = 0.0004872, x2 = 0.0004542	0.907	0.82	0.737	0.644	0.558
x1 = 0.0004873, x2 = 0.000181	0.903	0.815	0.732	0.64	0.554

CC[n+]1ccn(C)c1.F[B-](F)(F)F + CCCCCC[n+]1ccn(C)c1.F[B-](F)(F)F
101 kPa, x1 = 1
Conditions	viscosity [mPa·s]
299.15 K	34.52
308.15 K	25.54

CC[n+]1ccn(C)c1.COP(=O)([O-])OC + CO
101 kPa
Conditions	viscosity [mPa·s]
298.15 K, x2 = 0.598	20.62
318.15 K, x2 = 0.799	3.265
328.15 K, x2 = 0.399	20.82
333.15 K, x2 = 0.399	18.06
